Test results: the supplement of paper PMC9663587

How the values were obtained:
THZ531 = compound: CN(C)C/C=C/C(=O)Nc1ccc(C(=O)N2CCC[C@@H](Nc3ncc(Cl)c(-c4c[nH]c5ccccc45)n3)C2)cc1 [THZ531]; test: increase in dead-cell fraction, 72 h; higher = more death;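 further: breast cancer cell lines in 384-well plates, stained with Hoechst plus LIVE/DEAD far red dye and imaged, cells above an LDR intensity threshold counted dead, Hoechst-negative corpses included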
YKL-5-124 [1] = compound: T1, C=CC(=O)Nc1ccc(C(=O)Nc2[nH]nc3c2CN(C(=O)N[C@H](CN(C)C)c2ccccc2)C3(C)C)cc1 [YKL-5-124]; test: as above
Cisplatin = compound: N.N.Cl[Pt]Cl [Cisplatin]
YKL-5-124 [2] = compound: T1, YKL-5-124
Etoposide = compound: COc1cc([C@@H]2c3cc4c(cc3[C@@H](O[C@@H]3O[C@@H]5CO[C@@H](C)O[C@H]5[C@H](O)[C@H]3O)[C@H]3COC(=O)[C@H]23)OCO4)cc(OC)c1O [Etoposide]
Topotecan = compound: CC[C@@]1(O)C(=O)OCc2c1cc1n(c2=O)Cc2cc3c(CN(C)C)c(O)ccc3nc2-1 [Topotecan]
Everolimus = compound: CO[C@H]1C[C@@H]2CC[C@@H](C)[C@@](O)(O2)C(=O)C(=O)N2CCCC[C@H]2C(=O)O[C@H]([C@H](C)C[C@@H]2CC[C@@H](OCCO)[C@H](OC)C2)CC(=O)[C@H](C)/C=C(\C)[C@@H](O)[C@@H](OC)C(=O)[C@H](C)C[C@H](C)/C=C/C=C/C=C/1C [Everolimus]
Bleomycin = compound: CC1=C(N=C(N=C1N)[C@H](CC(=O)N)NC[C@@H](C(=O)N)N)C(=O)N[C@@H]([C@H](C2=CN=CN2)OC3C(C(C(C(O3)CO)O)O)OC4C(C(C(C(O4)CO)O)OC(=O)N)O)C(=O)N[C@H](C)[C@H]([C@H](C)C(=O)N[C@@H]([C@@H](C)O)C(=O)NCCC5=NC(=CS5)C6=NC(=CS6)C(=O)NCCC[S+](C)C)O [Bleomycin]; details: main component drawn
[3] = compound: COc1cccc(OCCCN)c1-c1cc(Nc2cnc(C#N)cn2)n[nH]1
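Wherever GR50, 72 h is given: breast cancer and non-malignant breast epithelial cell lines, Deep Dye Drop or Dye Drop imaging, nine half-log doses, GR normalized to time-zero plates and DMSO-only controls.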

| Cell Line | increase in dead-cell fraction (THZ531; 0.0001 µM) | increase in dead-cell fraction (THZ531; 0.0003162 µM) | increase in dead-cell fraction (THZ531; 0.001 µM) | increase in dead-cell fraction (THZ531; 0.003162 µM) | increase in dead-cell fraction (THZ531; 0.01 µM) | increase in dead-cell fraction (THZ531; 0.03162 µM) | increase in dead-cell fraction (THZ531; 0.1 µM) | increase in dead-cell fraction (THZ531; 0.3162 µM) | increase in dead-cell fraction (THZ531; 1 µM) | increase in dead-cell fraction (YKL-5-124 [1]; 0.001 µM) | increase in dead-cell fraction (YKL-5-124 [1]; 0.003162 µM) | increase in dead-cell fraction (YKL-5-124 [1]; 0.01 µM) | increase in dead-cell fraction (YKL-5-124 [1]; 0.03162 µM) | increase in dead-cell fraction (YKL-5-124 [1]; 0.1 µM) | increase in dead-cell fraction (YKL-5-124 [1]; 0.3162 µM) | increase in dead-cell fraction (YKL-5-124 [1]; 1 µM) | increase in dead-cell fraction (YKL-5-124 [1]; 3.162 µM) | increase in dead-cell fraction (YKL-5-124 [1]; 10 µM) | GR50, 72 h (Cisplatin) | GR50, 72 h (YKL-5-124 [2]) | GR50, 72 h (Etoposide) | GR50, 72 h (Topotecan) | GR50, 72 h (Everolimus) | GR50, 72 h (Bleomycin) | GR50, 72 h [3] |
| --- | --- | --- | --- | --- | --- | --- | --- | --- | --- | --- | --- | --- | --- | --- | --- | --- | --- | --- | --- | --- | --- | --- | --- | --- | --- |
| HCC70 | -0.0083 | 0.004 | -0.0113 | -0.0062 | -0.0005 | 0.0092 | 0.227 | 0.623 | 0.805 | 0.0881 | 0.0945 | 0.148 | 0.205 | 0.254 | 0.285 | 0.376 | 0.41 | 0.726 | 1.32 µM | < 0.001 µM | 0.365 µM | 0.00946 µM | 0.245 µM | 0.398 µM | – |
| MDAMB415 | 0.003 | 0.0003 | 0.0038 | 0.0023 | 0.0067 | 0.0049 | 0.0372 | 0.104 | 0.104 | 0.0047 | -0.0002 | 0.0066 | 0.0051 | 0.0109 | 0.0176 | 0.0019 | 0.0153 | 0.0261 | – | 0.00409 µM | – | – | – | – | – |
| PDX1328 | -0.0004 | -0.0097 | 0.0015 | 0 | 0.003 | -0.0033 | 0.0477 | 0.199 | 0.186 | 0.0057 | 0.0011 | 0.0128 | 0.0082 | 0.0045 | 0.0085 | 0.0121 | 0.0229 | 0.0663 | 0.784 µM | – | 0.805 µM | 0.00592 µM | – | 4 µM | 0.000974 µM |
| PDXHCI002 | -0.0252 | -0.029 | -0.0123 | 0.0054 | 0.0146 | 0.0278 | 0.241 | 0.379 | 0.263 | 0.156 | 0.144 | 0.185 | 0.172 | 0.186 | 0.234 | 0.186 | 0.255 | 0.182 | 1.73 µM | < 0.001 µM | 0.182 µM | 0.00665 µM | > 10 µM | 1.16 µM | – |
| MCF10A | -0.0006 | -0.0007 | 0.0006 | -0.0006 | -0.0015 | 0.0007 | 0.0013 | 0.0057 | 0.795 | 0.0412 | 0.118 | 0.138 | 0.146 | 0.116 | 0.149 | 0.159 | 0.118 | 0.167 | 4.29 µM | < 0.001 µM | 0.284 µM | 0.00987 µM | > 10 µM | 0.177 µM | – |
| SUM229PE | 0.0065 | 0.0019 | -0.0006 | 0.0039 | -0.0022 | -0.005 | -0.0018 | 0.0175 | 0.0884 | 0.0368 | 0.0432 | 0.0321 | 0.0316 | 0.0267 | 0.0384 | 0.0161 | 0.0213 | 0.0246 | – | < 0.001 µM | – | – | > 10 µM | – | 0.00707 µM |
| UACC893 | -0.0016 | 0.0009 | 0.0027 | 0.0008 | -0.0019 | 0.0067 | 0.0859 | 0.0937 | 0.109 | -0.0033 | 0.0007 | 0.002 | 0.0043 | 0.007 | 0.0024 | -0.0001 | 0.0003 | 0.163 | – | 0.00386 µM | – | – | – | – | 0.0579 µM |
| HCC1806 | 0.0006 | 0.001 | 0.0004 | -0.0016 | -0.0015 | 0.0016 | 0.0014 | 0.0179 | 0.586 | 0.0531 | 0.0858 | 0.134 | 0.202 | 0.196 | 0.264 | 0.331 | 0.322 | 0.538 | 0.833 µM | < 0.001 µM | 0.0964 µM | 0.00527 µM | > 10 µM | 8.98 µM | – |
| HCC202 | -0.0053 | 0.002 | -0.0003 | -0.0311 | 0.0109 | 0.0036 | 0.066 | 0.128 | 0.088 | 0.0491 | 0.0507 | 0.0643 | 0.0596 | 0.0803 | 0.0716 | 0.0671 | 0.081 | 0.213 | – | – | – | – | – | – | 0.00549 µM |
| MCF7 | 0.0003 | -0.0011 | 0.0038 | -0.0013 | 0.0059 | 0.0084 | 0.125 | 0.185 | 0.355 | 0.0137 | 0.0144 | 0.0219 | 0.0284 | 0.0263 | 0.0411 | 0.0356 | 0.039 | 0.203 | 9.32 µM | < 0.001 µM | 0.135 µM | 0.00604 µM | 0.00269 µM | 0.0772 µM | – |
| BT474 | -0.0031 | 0.0048 | 0.003 | -0.0009 | -0.0036 | 0.0037 | 0.17 | 0.413 | 0.229 | 0.0145 | 0.0218 | 0.019 | 0.0189 | 0.0303 | 0.0351 | 0.0209 | 0.0235 | 0.182 | – | < 0.001 µM | – | – | – | – | – |
| HCC1500 | – | – | – | – | – | – | – | – | – | – | – | – | – | – | – | – | – | – | 3.45 µM | – | 1.43 µM | 0.00546 µM | – | 2.28 µM | – |
| SUM190PT | -0.0012 | 0.0006 | 0.0192 | 0.0068 | -0.0033 | 0.0143 | 0.0893 | 0.636 | 0.44 | 0.0072 | 0.0099 | 0.0098 | 0.0132 | 0.005 | 0.0169 | 0.0033 | 0.0008 | 0.244 | – | < 0.001 µM | – | – | 0.00331 µM | – | 0.00042 µM |
| MDAMB157 | – | – | – | – | – | – | – | – | – | – | – | – | – | – | – | – | – | – | 5.24 µM | – | 0.112 µM | 0.00595 µM | > 10 µM | 1.29 µM | – |
| SUM52PE | -0.0007 | 0.0017 | -0.0005 | -0.0003 | -0.0005 | 0.0015 | 0.0054 | 0.0857 | 0.311 | 0.0072 | 0.0054 | 0.0099 | 0.0108 | 0.013 | 0.0189 | 0.009 | 0.0202 | 0.0275 | – | 0.0453 µM | – | – | > 10 µM | – | 0.00264 µM |
| EVSAT | 0.0033 | -0.0022 | -0.0014 | -0.0011 | 0.0002 | -0.0005 | 0.0333 | 0.372 | – | 0.0967 | 0.0973 | 0.147 | 0.16 | 0.143 | 0.185 | 0.183 | 0.204 | 0.697 | – | < 0.001 µM | – | – | – | – | – |
| HCC1428 | – | – | – | – | – | – | – | – | – | – | – | – | – | – | – | – | – | – | 0.901 µM | – | 0.214 µM | 0.0106 µM | 0.031 µM | 4.26 µM | – |
